Assay results taken from US20100093702A1, “METHYLENE AMINES OF THIENO[2,3-d]PYRIMIDINE AND THEIR USE AS ADENOSINE A2a RECEPTOR ANTAGONISTS” (priority 2008, published 2010).
Where a name gives a salt, the structure may show the parent alone.

Assays:
[1] = target: T1, human A2a adenosine receptor (Homo sapiens, UniProt P29274); assay: Ligand Binding Assay for Adenosine A2a Receptor (A2A-B); details: HEK293 plasma membrane, radioligand [3H]CGS21680
T1 construct: purchased PerkinElmer RB-HA2a; host or cells: HEK293
T1 sequence (P29274 whole entry): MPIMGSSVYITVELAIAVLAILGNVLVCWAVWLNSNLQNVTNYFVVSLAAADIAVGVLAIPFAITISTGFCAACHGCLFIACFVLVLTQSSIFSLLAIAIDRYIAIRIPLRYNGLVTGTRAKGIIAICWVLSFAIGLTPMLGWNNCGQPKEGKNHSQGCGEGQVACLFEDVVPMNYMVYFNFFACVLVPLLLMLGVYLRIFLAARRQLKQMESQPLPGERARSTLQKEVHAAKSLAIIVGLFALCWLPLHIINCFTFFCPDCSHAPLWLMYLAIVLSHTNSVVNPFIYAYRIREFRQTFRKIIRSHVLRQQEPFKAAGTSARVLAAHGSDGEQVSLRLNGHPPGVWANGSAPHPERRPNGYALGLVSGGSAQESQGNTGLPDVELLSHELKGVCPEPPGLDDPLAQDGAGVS
In short: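 [3H]CGS21680 binding to HEK293 membranes expressing human A2a receptor in 50 mM Tris-HCl pH 7.4, 10 mM MgCl2, 1 mM EDTA, 2 h at room temperature. Nonspecific binding defined with […] NECA; bound ligand collected on PEI-soaked GF/C filters and counted by scintillation.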

[2] = target: T2, human adenosine A1 receptor (Homo sapiens, UniProt P30542); assay: Adenosine A1 Receptor Functional Assay (A1GAL2); type: cell-based; details: CHO-K1 cells, cAMP inducible beta-galactosidase reporter, 4 nM r-PIA/1 uM Forskolin challenge
T2 construct: expressed in transfected cells; host or cells: CHO-K1
T2 sequence (P30542 1-326): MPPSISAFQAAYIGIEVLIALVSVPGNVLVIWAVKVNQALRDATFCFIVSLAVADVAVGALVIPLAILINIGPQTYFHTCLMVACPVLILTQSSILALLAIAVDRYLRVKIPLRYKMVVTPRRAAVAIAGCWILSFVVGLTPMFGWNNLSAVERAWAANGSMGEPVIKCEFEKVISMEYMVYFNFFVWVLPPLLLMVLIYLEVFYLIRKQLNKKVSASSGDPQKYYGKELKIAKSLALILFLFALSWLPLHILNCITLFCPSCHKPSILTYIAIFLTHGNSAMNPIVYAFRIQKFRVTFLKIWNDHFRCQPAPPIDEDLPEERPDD
In short: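 CHO-K1 cells expressing the receptor with a cAMP-inducible β-galactosidase reporter were preincubated with compound (11-point curves) about 15 min at room temperature, then challenged with r-PIA (4 nM)/forskolin (1 µM) for 5.5–6 h at 37 °C. Lysates were read colorimetrically at 405 nm, and IC/EC50 was obtained by curve fitting.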

[3] = target: T3, human adenosine A2a receptor (Homo sapiens, UniProt P29274); assay: Adenosine A2a Receptor Functional Assay (A2AGAL2); type: cell-based; details: CHO-K1 cells, cAMP inducible beta-galactosidase reporter, 15 nM NECA agonist challenge
T3 construct: expressed in transfected cells; host or cells: CHO-K1
T3 sequence (P29274 whole entry): as the sequence (P29274 whole entry) above
In short: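 Antagonist mode in CHO-K1 cells expressing human A2a with a cAMP-inducible β-galactosidase reporter (10K cells/well, cultured 2 days). 11-point compound curves preincubated ~15 min at room temperature in Ham's F-12/0.1% BSA, then 15 nM NECA challenge, 5.5–6 h at 37 °C. Colorimetric β-gal read at 405 nm; IC/EC50 fitted.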

Structure (SMILES) | Ki [1] | Ki [2] | Ki [3]
CC(C)c1ccccc1-c1nc(N)c2cc(CN3CCC(F)CC3)sc2n1 [Example 79, 6-(4-Fluoro-piperidin-1-ylmethyl)-2-(2-isopropyl-phenyl)-thieno[2,3-d]pyrimidin-4-ylamine] | 7410 nM | 4470 nM | 1040 nM
COc1cccc(-c2nc(N)c3cc(CN4CC=CCC4)sc3n2)c1 [Example 80, 6-(3,6-Dihydro-2H-pyridin-1-ylmethyl)-2-(3-methoxy-phenyl)-thieno[2,3-d]pyrimidin-4-ylamine] | 184 nM | 1080 nM | 102 nM
N#Cc1cccc(-c2nc(N)c3cc(CN4CCC(F)CC4)sc3n2)c1 [Example 82, 3-[4-Amino-6-(4-fluoro-piperidin-1-ylmethyl)-thieno[2,3-d]pyrimidin-2-yl]-benzonitrile] | 444 nM | 2950 nM | 53.8 nM
N#Cc1cccc(-c2nc(N)c3cc(CN4CCSCC4)sc3n2)c1 [Example 83, 3-(4-Amino-6-thiomorpholin-4-ylmethyl-thieno[2,3-d]pyrimidin-2-yl)-benzonitrile] | 281 nM | 1780 nM | 64.9 nM
COc1cccc(-c2nc(N)c3cc(CN4CCSCC4)sc3n2)c1 [Example 85, 2-(3-Methoxy-phenyl)-6-thiomorpholin-4-ylmethyl-thieno[2,3-d]pyrimidin-4-ylamine] | 659 nM | 2960 nM | 169 nM
COc1cccc(-c2nc(N)c3cc(CN4CCCC(F)(F)C4)sc3n2)c1 [Example 86, 6-(3,3-Difluoro-piperidin-1-ylmethyl)-2-(3-methoxy-phenyl)-thieno[2,3-d]pyrimidin-4-ylamine] | 242 nM | 1810 nM | 97.5 nM
N#Cc1ccc(-c2nc(N)c3cc(CN4CC=CC4)sc3n2)cc1 [Example 88, 4-[4-Amino-6-(2,5-dihydro-pyrrol-1-ylmethyl)-thieno[2,3-d]pyrimidin-2-yl]-benzonitrile] | 76 nM | 2350 nM | 78.9 nM
Nc1nc(-c2ccc(Cl)o2)nc2sc(CN3CCC(F)CC3)cc12 [Example 89, 2-(5-Chloro-furan-2-yl)-6-(4-fluoro-piperidin-1-ylmethyl)-thieno[2,3-d]pyrimidin-4-ylamine hydrochloride] | 1.9 nM | 1080 nM | 35.9 nM
Nc1nc(-c2ccc(Cl)o2)nc2sc(CN3CCCC3)cc12 [Example 90, 2-(5-Chloro-furan-2-yl)-6-pyrrolidin-1-ylmethyl-thieno[2,3-d]pyrimidin-4-ylamine hydrochloride] | 3.7 nM | 712 nM | 22.3 nM
Nc1nc(-c2ccco2)nc2sc(CNC34CC5CC(CC(C5)C3)C4)cc12 [Example 91, 6-(Adamantan-1-ylaminomethyl)-2-furan-2-yl-thieno[2,3-d]pyrimidin-4-ylamine] | 15 nM | 1030 nM | 121 nM
Nc1nc(-c2ccco2)nc2sc(CN3CCC(F)CC3)cc12 [Example 92, 6-(4-Fluoro-piperidin-1-ylmethyl)-2-furan-2-yl-thieno[2,3-d]pyrimidin-4-ylamine Hydrochloride] | 12 nM | 741 nM | 18.9 nM
Nc1nc(-c2ccc(Cl)o2)nc2sc(CN3CCCCCC3)cc12 [Example 93, 6-Azepan-1-ylmethyl-2-(5-chloro-furan-2-yl)-thieno[2,3-d]pyrimidin-4-ylamine] | 1.8 nM | 1420 nM | 33.2 nM
Nc1nc(-c2ccc(Cl)o2)nc2sc(CN3CC=CCC3)cc12 [Example 95, 2-(5-Chloro-furan-2-yl)-6-(3,6-dihydro-2H-pyridin-1-ylmethyl)-thieno[2,3-d]pyrimidin-4-ylamine] | 3.4 nM | 188 nM | 10.7 nM
Nc1nc(C2CC2)nc2sc(CN3CC=CCC3)cc12 [Example 96, 2-Cyclopropyl-6-(3,6-dihydro-2H-pyridin-1-ylmethyl)-thieno[2,3-d]pyrimidin-4-ylamine] | 1620 nM | 3020 nM | 325 nM
Nc1nc(-c2ccc(Cl)o2)nc2sc(CN3CC=CC3)cc12 [Example 97, 2-(5-Chloro-furan-2-yl)-6-(2,5-dihydro-pyrrol-1-ylmethyl)-thieno[2,3-d]pyrimidin-4-ylamine] | 0.54 nM | 783 nM | 10.2 nM
Nc1nc(-c2ccco2)nc2sc(CN3CC=CCC3)cc12 [Example 98, 6-(3,6-Dihydro-2H-pyridin-1-ylmethyl)-2-furan-2-yl-thieno[2,3-d]pyrimidin-4-ylamine] | 20.3 nM | 158 nM | 8.85 nM
Nc1nc(-c2ccnc(Cl)c2)nc2sc(CN3CCOCC3)cc12 [Example 105, 2-(2-Chloro-pyridin-4-yl)-6-morpholin-4-ylmethyl-thieno[2,3-d]pyrimidin-4-ylamine] | 934 nM | 876 nM | 123 nM
Nc1nc(-c2ccc(C(F)F)o2)nc2sc(CN3CCOCC3)cc12 [Example 107, 2-(5-Difluoromethyl-furan-2-yl)-6-morpholin-4-ylmethyl-thieno[2,3-d]pyrimidin-4-ylamine] | 66.1 nM | 2700 nM | 30.5 nM
